From US12268683B2, “Compounds and methods for synergistic activation of M channels” (THE REGENTS OF THE UNIVERSITY OF CALIFORNIA, priority 2018, dated 2025)

What was measured:
KCNQ1 = KCNQ1 (Homo sapiens, UniProt P51787); experiment: TEVC of homomeric KCNQ1 expressed in Xenopus oocytes; type: cell-based
GLRA1 = biological target: T1, GLRA1 (Homo sapiens, UniProt P23415); experiment: TEVC of glycine receptor GLRA1 expressed in oocytes; type: cell-based; details: for activation of GLRA1 by compound alone: 1 mM
T1 sequence (P23415 29-457): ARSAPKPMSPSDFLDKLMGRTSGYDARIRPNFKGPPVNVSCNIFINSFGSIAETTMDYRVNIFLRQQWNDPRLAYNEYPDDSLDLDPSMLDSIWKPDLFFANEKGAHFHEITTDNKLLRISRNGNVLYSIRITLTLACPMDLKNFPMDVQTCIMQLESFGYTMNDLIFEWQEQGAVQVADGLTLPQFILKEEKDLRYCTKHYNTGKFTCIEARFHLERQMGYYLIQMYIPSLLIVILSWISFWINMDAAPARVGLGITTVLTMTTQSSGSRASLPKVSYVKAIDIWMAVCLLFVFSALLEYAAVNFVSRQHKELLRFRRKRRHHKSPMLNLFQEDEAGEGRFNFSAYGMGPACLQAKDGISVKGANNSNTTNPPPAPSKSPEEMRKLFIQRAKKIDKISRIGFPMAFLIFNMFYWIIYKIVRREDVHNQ
Description: We generated cRNA transcripts encoding human KCNQ1, KCNQ2, KCNQ3, KCNQ4, KCNQ5 or GLRA1 (NM_001146040) (GenScript, Piscataway, N.J., USA) by in vitro transcription using the T7 polymerase mMessage mMachine kit (Thermo Fisher Scientific), after vector linearization, from cDNA sub-cloned into plasmids incorporating Xenopus laevis β-globin 5′ and 3′ UTRs flanking the coding region to enhance translation and cRNA stability. We quantified cRNA by spectrophotometry. We generated mutant KCNQ2 and KCNQ3 cDNAs by site-directed mutagenesis using a QuikChange kit (Stratagene, San Diego, Calif.) and prepared the corresponding cRNAs as above. We injected defolliculated stage V and VI Xenopus laevis oocytes (Ecocyte Bioscience, Austin, Tex. and Xenoocyte, Dexter, Mich.) with KCNQ channel a subunit (5-20 ng) or GLRA1 (20 ng) cRNAs. We incubated the oocytes at 16° C. in Barth's saline solution (Ecocyte) containing penicillin and streptomycin, with daily washing, for 2-5 days prior to two-electrode voltage-clamp (TEVC) recording.
We performed TEVC at room temperature using an OC-725C amplifier (Warner Instruments, Hamden, Conn.) and pClamp10 software (Molecular Devices, Sunnyvale, Calif.) 3-5 days after cRNA injection as described in the section above. For recording, oocytes were placed in a small-volume oocyte bath (Warner) and viewed them with a dissection microscope. Chemicals were sourced from Sigma, Matrix Scientific and Santa Cruz. […] All stock solutions were diluted in bath solution on the day of experiments. KCNQ2/3 channel activation was screened for using either 30 μM or 100 μM concentrations of each of the six compounds, then dose responses were conducted as appropriate. Bath solution was (in mM): 96 NaCl, 4 KCl, 1 MgCl2, 1 CaCl2, 10 HEPES (pH 7.6). Compounds were introduced into the oocyte recording bath by gravity perfusion at a constant flow of 1 ml per minute for 3 minutes prior to recording. Pipettes were of 1-2 MΩ resistance when filled with 3 M KCl. Currents were recorded in response to voltage pulses between −120 or −80 mV and +40 mV at 20 mV intervals from a holding potential of −80 mV, to yield current-voltage relationships, current magnitude, and for quantifying activation rate. We analyzed data using Clampfit (Molecular Devices) and Graphpad Prism software (GraphPad, San Diego, Calif., USA); values are stated as mean±SEM. We plotted raw or normalized tail currents versus prepulse voltage and fitted with a single Boltzmann function: […]

Compound | effect on KCNQ1 (in words) (KCNQ1) | activation of GLRA1 by compound alone (GLRA1) | inhibition of glycine-activated GLRA1 (GLRA1; 100 μM, 1 mM glycine) [%] | inhibition of glycine-activated GLRA1 (in words) (GLRA1; 100 μM, 1 mM glycine)
CCCCCCCCC/C=C/C=O [(E)-2-dodecenal] | sensitive |  |  | 
NCC(=O)O [glycine, reference compound] |  | robust activation |  | 
CS(=O)(=O)N(CC(=O)O)c1cccc(F)c1 [3FMSG] | negligible effects | lack of effects | ~40 | partially inhibited
